The record followed here is BindingDB's records for PubMed 38943600 (China Pharmaceutical University).

Molecules are shown by their SMILES. pKd: −log10 of the molar value. *1 amine or outer side, *2 acyl side, *3 side chain or, on linkers, in order; H or OH if unused. Where a SMILES comes first, the peptide text is derived from it. The star is where a group is joined. ξ: configuration not given here. X6 = Nc1ccn(C2OC(COC(=O)CCCCCN3C(=O)CC(*)C3=O)C(O)C2(F)F)c(=O)n1; C18 diacid = O=C(O)CCCCCCCCCCCCCCCCC(=O)*; ξγGlu = O=C(O)C(CCC(=O)[*:2])N[*:1]; AEEA = NCCOCCOCC(=O)O

The assay concerns the target Inactive tyrosine-protein kinase transmembrane receptor ROR1 (Homo sapiens, UniProt Q01973). The experiment in a line: Binding affinity to N-terminal His/GST-tagged recombinant human ROR1 (453 to 783 residues) extracted from baculovirus infected insect cells assessed as dissociation constant by SPR analysis. In general terms: In SPR one partner is held on a chip, and binding of the other changes the refractive index at the surface.

Sequence of Inactive tyrosine-protein kinase transmembrane receptor ROR1 (Q01973 whole entry, the tested form may be a part): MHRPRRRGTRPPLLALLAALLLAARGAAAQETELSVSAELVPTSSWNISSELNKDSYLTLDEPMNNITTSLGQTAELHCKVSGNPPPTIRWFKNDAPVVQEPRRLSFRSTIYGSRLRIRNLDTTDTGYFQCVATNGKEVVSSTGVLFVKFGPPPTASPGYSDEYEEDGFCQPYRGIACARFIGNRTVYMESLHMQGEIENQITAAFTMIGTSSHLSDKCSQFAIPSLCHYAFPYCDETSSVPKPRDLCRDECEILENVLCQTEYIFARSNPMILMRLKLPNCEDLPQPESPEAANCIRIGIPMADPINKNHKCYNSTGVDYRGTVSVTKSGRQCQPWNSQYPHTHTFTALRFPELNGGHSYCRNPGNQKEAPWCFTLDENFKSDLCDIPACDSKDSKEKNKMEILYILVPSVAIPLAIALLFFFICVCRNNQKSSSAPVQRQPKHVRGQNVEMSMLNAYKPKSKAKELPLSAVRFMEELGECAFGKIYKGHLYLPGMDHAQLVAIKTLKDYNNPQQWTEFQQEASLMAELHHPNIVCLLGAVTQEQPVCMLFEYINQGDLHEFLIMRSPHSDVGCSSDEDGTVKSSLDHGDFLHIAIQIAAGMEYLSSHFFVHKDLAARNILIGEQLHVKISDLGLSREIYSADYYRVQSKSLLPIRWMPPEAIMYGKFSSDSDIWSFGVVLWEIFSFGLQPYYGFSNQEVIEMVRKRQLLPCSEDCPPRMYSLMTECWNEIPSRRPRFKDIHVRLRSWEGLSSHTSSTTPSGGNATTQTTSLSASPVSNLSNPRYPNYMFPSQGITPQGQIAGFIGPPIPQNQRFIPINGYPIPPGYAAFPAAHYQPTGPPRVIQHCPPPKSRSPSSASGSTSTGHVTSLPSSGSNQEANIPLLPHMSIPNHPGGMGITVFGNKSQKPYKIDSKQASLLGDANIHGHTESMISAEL

As for `CC[C@H](C)[C@H](NC(=O)[C@H](CC(=O)O)NC(=O)[C@H](CO)NC(=O)CNC(=O)[C@H](CSC1CC(=O)N(CCCCCC(=O)OCC2OC(n3ccc(N)nc3=O)C(F)(F)C2O)C1=O)NC(=O)CNC(=O)[C@H](CCCCN)NC(=O)COCCOCCNC(=O)COCCOCCNC(=O)CCC(NC(=O)CCCCCCCCCCCCCCCCC(=O)O)C(=O)O)C(=O)N[C@@H](CC(N)=O)C(=O)N[C@@H](CC(=O)O)C(=O)N[C@@H](CCCNC(=N)N)C(=O)N[C@@H](CCC(N)=O)C(=O)N[C@H](C(=O)N1CCC[C@H]1C(=O)NCC(=O)N[C@@H](Cc1ccc(O)cc1)C(=O)N[C@@H](CO)C(=O)N[C@H](C(=O)N[C@@H](Cc1ccc(O)cc1)C(=O)N[C@@H](Cc1c[nH]c2ccccc12)C(=O)NCC(=O)N[C@@H](CC(=O)O)C(=O)N[C@@H](Cc1ccccc1)C(N)=O)[C@@H](C)O)[C@@H](C)CC` (stereo partly specified) ({C18 diacid-ξγGlu-AEEA-AEEA}-KGC(X6)GSDINDRQIPGYSTYWGDF-NH2), the pKd – broadly, the negative decadic logarithm of the Kd, by convention in mol/L – was 8.92.
